Results as given in patent US11123329B1, “Use of angiotensin II type 2 receptor agonist” (Vicore Pharma AB, priority 2020, dated 2021).

Columns and labels:
[1] = test system: SARS-CoV-2 infection
[2] = test system: AT2R; settings: in particular in inflamed lung tissue; cited from earlier work
[3] = test system: ACE2; settings: in particular in inflamed lung tissue; cited from earlier work
[4] = test system: acute lung injury; settings: model of acute lung injury; cited from earlier work
[5] = test system: E-cadherin expression; settings: SAEMyoF
Description: The effect of C21 on E-cadherin expression was studied using the human disease model BioMAP® platform (fibrosis panel) with ELISA-based protein biomarker detection in a human small airway epithelial cell plus lung fibroblast (SAEMyoF) assay (a service provided by Eurofins DiscoverX Corporation, Fremont, Calif., USA).

[6] = end of treatment, 100 mg b.i.d. oral, 7 days on top of standard of care, n=51

SMILES: CCCCOC(=O)NS(=O)(=O)c1sc(CC(C)C)cc1-c1ccc(Cn2ccnc2)cc1 [Compound C21, N-butyloxycarbonyl-3-(4-imidazol-1-ylmethylphenyl)-5-isobutylthiophene-2-sulfonamide]
- level of circulating biomarker of inflammation CRP, versus placebo ([1]; 100 mg b.i.d., 7 days): no significant differences
- level of circulating biomarker of inflammation IL-6, versus placebo ([1]; 100 mg b.i.d., 7 days): no significant differences
- level of circulating biomarker of inflammation TNF, versus placebo ([1]; 100 mg b.i.d., 7 days): no significant differences
- tolerability ([1]; 100 mg b.i.d., 7 days, COVID-19 patients): well tolerated
- deaths ([1]; 100 mg b.i.d., 7 days, n=51): 1
- number of patients needing mechanical ventilation ([1]; 100 mg b.i.d., 7 days, n=51): 1
- total number of reported adverse events ([1]; 100 mg b.i.d., 7 days, n=51): 64
- beneficial effect on need of oxygen supply versus placebo ([1]; 100 mg b.i.d., 7 days, C21 n=51 vs placebo n=56): statistically significant at the predefined 10% level
- number of patients that needed oxygen supply [1, 6]: 14
- patients that needed oxygen supply, share of group [1, 6]: 27%
- expression of AT2R [2]: increase the expression
- expression of ACE2 [3]: increase the expression
- pulmonary gas exchange or other relevant beneficial clinical effects [4]: not to improve
- reduction of E-cadherin at lower concentrations ([5]; 0.37, 1.1 and 3.3 μM of C21): did not reduce E-cadherin
- effect on E-cadherin levels ([5]; 0.37-10 μM): dose-dependently reduced
